Assay results from patent US7763650B2, “Pharmaceutical compound and method” (Medipharma S.A., priority 2006, dated 2010).

How the values were obtained:
mice = test: RotoRod minimal neurotoxicity test; assay type: in vivo; conditions: for Protection: Rotorot test on Effective Doses 50: mouse, in vivo
Protocol: In Vivo Experiments: The pharmacological tests were performed according to standard procedures provided by the Antiepileptic Drug Development (ADD) Program of the National Institute of Neurological and Communicative Disorders and Stroke (NINCDS). Neurotoxicity tests: The RotoRod test is used exclusively in mice to assess minimal neurotoxicity. A normal mouse can maintain its equilibrium on a rotating rod (6 rpm) for long periods of time. Neurological deficit is indicated by failure to keep walking on this rotating rod in each of three trials of 1 min each. Estimation of the neurotoxic effects: Groups of 8 animals per dose were injected and tested with the RotoRod test. The percentages of animals showing minimal neurotoxicity were recorded and the higher dose producing neurotoxic effects is reported.

[1] = system: Maximal electroshock seizures; test: Maximal electroshock seizure (MES) anticonvulsant test; assay type: in vivo; conditions: mice; for Relative Power in relation to 2-propylpentanoic acid (Valproic acid): MES test; for MES test: Effective doses 50: ip, at time of peak effect, micromols per Kg of mouse weight
Protocol: In Vivo Experiments: The pharmacological tests were performed according to standard procedures provided by the Antiepileptic Drug Development (ADD) Program of the National Institute of Neurological and Communicative Disorders and Stroke (NINCDS). Anticonvulsant tests: Maximal electroshock seizures were elicited in mice by delivering a 60 Hz/50 mA electrical stimulus for 0.2 sec. via ear clip electrodes. A drop of saline solution applied on each ear before placing the electrodes ensures adequate electrical contact. In these conditions, maximal seizures are produced in virtually all normal mice. The maximal seizure typically consists of a short period of tonic flexion followed by a longer period of tonic extension of the hind limbs and a final clonic episode. Blockade of the hind limbs tonic extensor component due to the drug treatment is taken as the end point. […] Determination of the Time of Peak Effect (TPE): […] The percentages of protection or neurotoxicity are recorded and plotted against time and the TPEs are determined by visual inspection of the graphs. Estimation of the ED50s: Groups of 8 animals per dose are injected via ip. […] The percentages of protection at each dose (converted to probit) were plotted against log-doses.

| Molecule | Protection: Rotorot test on Effective Doses 50 (mice) | Relative Power in relation to 2-propylpentanoic acid (Valproic acid) [1] | MES test: Effective doses 50 [1] | Rotorod: animals showing neurotoxicity / animals tested (mice; mice, dose not given) | Protective index (Rotorod neurotoxic dose / MES ED50) (mice; ratio of Rotorod dose to MES ED50, mice) |
| --- | --- | --- | --- | --- | --- |
| CCCC(CCC)C(=O)OC1C(O)C(O)C(OC(=O)C(CCC)CCC)C(OC(=O)C(CCC)CCC)C1OC(=O)C(CCC)CCC (racemic) [Example 4, (±)-3,4,5,6-tetra-O-(2-propylpentanoyl)-myo-inositol] | 6 | 9 | 100 µmol/kg | – | – |
| CCCC(CCC)C(=O)OC1C(O)C(O)C(O)C(O)C1OC(=O)C(CCC)CCC (racemic) [Example 5, (±)-3,4-Di-O-(2-propylpentanoyl)-myo-inositol] | 12 | 35 | 35 µmol/kg | – | – |
| CCCC(CCC)C(=O)O[C@H]1[C@H](OC(=O)C(CCC)CCC)[C@@H](OC(=O)C(CCC)CCC)[C@H](OC(=O)C(CCC)CCC)[C@@H](OC(=O)C(CCC)CCC)[C@H]1OC(=O)C(CCC)CCC [Example 1, (±)1,2,3,4,5,6-hexa-O-(2-propylpentanoyl)-myo-inositol] | – | – | 100 µmol/kg | 0/6 | – |
| CCCC(CCC)C(=O)O [Valproic acid, valproic acid, reference compound] | – | 1 | 1010 µmol/kg | – | – |
| (±)-5,6-Di-O-(2-propylpentanoyl)-1,2:3,4-di-O-cyclohexyl-O-myo-inositol [Example 2] | – | 35 | 80 µmol/kg | – | 12 |
